Results as given in US20070270432A1, “Novel Method” (priority 2002, published 2007).

Experiments:
[1] = system: hippocampal neurogenesis; conditions: literature; antidepressants given chronically; cited from earlier work
[2] = system: NCAM PSA-immunoreactive neurons, dentate granule cell layer/hilar border; test: NCAM PSA expression in hippocampal dentate gyrus after chronic administration; format: in vivo, rat; conditions: for PSA immunopositive cell frequency: hippocampal dentate; for effect on frequency of polysialylated neurons in the subventricular zone of the rat hippocampal dentate gyrus: chronic administration, versus vehicle-treated control
Procedure: (§1) Experimentally naïve postnatal day 80 (at the time of NCAM-PSA assessment) male Wistar rats were employed in all studies. All animals were housed singly and maintained at 22±2° C. on a standard 12 h-light/dark cycle with food and water available ad libitum. Animals were introduced to the experimental holding rooms at least 3 days prior to the commencement of any study.
(§2) Freshly dissected whole rat brain was carefully coated in optimum cutting temperature (OCT) compound and lowered into a Cryoprep freezing apparatus containing dry-ice-cooled n-hexane. The function of the OCT compound and n-hexane was to provide an even freezing of the tissue, thus avoiding freezing artefacts. Horizontal sections for all studies were cut semi-automatically or automatically on a Microm Series 500 cryostat. Fresh, frozen brain sections (12 μm) were cut at −15° C., while cryoprotected. All sections were prepared on the day of the experiment and were not pre-cut and stored frozen.
(§3) Horizontal cryosections were cut from the frozen tissue at various levels with reference to Bregma (see above), these were thaw-mounted onto glass slides, which were coated with poly-1-lysine diluted 1:1 in dH2O, and immersion fixed for 30 minutes with 70% ethanol. The sections were then washed twice for 10 minutes each in 0.1M phosphate buffered saline (PBS) and incubated for 20 hours in a humidified chamber at room temperature with the primary antibody diluted 1:500 in PBS containing 1% bovin serum albumin (w/v) and 1% normal goat serum (v/v) to reduce non-specific staining. The humidified chamber prevented the sections from evaporating. The primary antibody was a monoclonal raised against PSA, which was provided by Professor G, Rougon (CNRS UMR 6545, 13288 Marseille, France). On completion of the primary antibody incubation, the sections were washed twice for ten minutes each in PBS and incubated at room temperature for 3 hours in the humidified chamber with the secondary antibody, at a dilution factor of 1:100, again in PBS containing 1% BSA and 1% NGS. The secondary antibody was a goat anti-mouse IgM conjugated to fluorescein (FITC). Following the second incubation, the sections ware again washed twice for ten minutes each in PBS, mounted in the fluorescence enhancing medium Citifluor® and observed for fluorescence with a Leitz DM RB fluorescent microscope.
(§4) Quantitative image analysis was performed using the Leica Quantimet 500®, a P.C.-based software package, which was connected to the fluorescence microscope with a high sensitivity CCD video camera. Each microscope lens was calibrated for length and area measurements using a 1 mm graticule. The total number of NCAM PSA-immunoreactive neurons on the right dentate granule cell layer/hilar border were counted in 7 alternate 12 μm sections commencing −5.6 mm from Bregma (Paxinos and Watson, 1986), to preclude double counting of the 5-10 μm perikarya. Cell identification was aided by the use of the nuclear counter-stain propidium iodide (40 ng/ml PBS; 60 sec). The number of cells was then divided by the total area of the dentate granule cell layer and multiplied by the average granule cell layer area for a p80 rat, which is 0.15±0.01 mm^2 at this level. This was done for each section and a mean±SEM was calculated for each brain with the results expressed as PSA-positive cells per unit area. […] Cell identification was again aided by the use of the nuclear counter-stain propidium iodide (40 ng/ml PBS; 60 sec) with the use of alternate sections eliminating the possibility of double counting. Cell counts were divided by the length of the cortex and multiplied by the average length of the cortex, which was taken to be 10 mm. This was completed for each section and a mean±SEM was calculated for each brain with the results expressed as PSA-positive cells per unit length.
NCAM PSA-positive cell numbers were obtained from each animal group.

[3] = system: polysialylated neurons in layer II of the entorhinal and perirhinal cortex; test: NCAM PSA expression in medial temporal lobe after chronic administration; format: in vivo, rat; conditions: 20 mg/kg; for PSA immunopositive cell frequency: medial temporal lobe, 40 days by gavage
Procedure: Experimentally naïve postnatal day 80 (at the time of NCAM-PSA assessment) male Wistar rats were employed in all studies. All animals were housed singly and maintained at 22±2° C. on a standard 12 h-light/dark cycle with food and water available ad libitum. Animals were introduced to the experimental holding rooms at least 3 days prior to the commencement of any study. The frequency of polysialylated neurons in the rat medial temporal lobe was also examined following chronic exposure to 5-HT6 antagonist. […] Horizontal cryosections were cut from the frozen tissue at various levels with reference to Bregma (see above), these were thaw-mounted onto glass slides, which were coated with poly-[…] diluted 1:1 in dH2O, and immersion fixed for 30 minutes with 70% ethanol. The sections were then washed twice for 10 minutes each in 0.1M phosphate buffered saline (PBS) and incubated for 20 hours in a humidified chamber at room temperature with the primary antibody diluted 1:500 in PBS containing 1% bovin serum albumin (w/v) and 1% normal goat serum (v/v) to reduce non-specific staining. The humidified chamber prevented the sections from evaporating. The primary antibody was a monoclonal raised against PSA, which was provided by Professor G, Rougon (CNRS UMR 6545, 13288 Marseille, France). On completion of the primary antibody incubation, the sections were washed twice for ten minutes each in PBS and incubated at room temperature for 3 hours in the humidified chamber with the secondary antibody, at a dilution factor of 1:100, again in PBS containing 1% BSA and 1% NGS. The secondary antibody was a goat anti-mouse IgM conjugated to fluorescein (FITC). Following the second incubation, the sections ware again washed twice for ten minutes each in PBS, mounted in the fluorescence enhancing medium Citifluor® and observed for fluorescence with a Leitz DM RB fluorescent microscope. Quantitative image analysis was performed using the Leica Quantimet 500®, a P.C.-based software package, which was connected to the fluorescence microscope with a high sensitivity CCD video camera. Each microscope lens was calibrated for length and area measurements using a 1 mm graticule. […] Cell identification was aided by the use of the nuclear counter-stain propidium iodide (40 ng/ml PBS; 60 sec). […] This was done for each section and a mean±SEM was calculated for each brain with the results expressed as PSA-positive cells per unit area. […] Cell identification was again aided by the use of the nuclear counter-stain propidium iodide (40 ng/ml PBS; 60 sec) with the use of alternate sections eliminating the possibility of double counting. Cell counts were divided by the length of the cortex and multiplied by the average length of the cortex, which was taken to be 10 mm. This was completed for each section and a mean±SEM was calculated for each brain with the results expressed as PSA-positive cells per unit length. […] NCAM PSA-positive cell numbers were obtained from each animal group. Results were expressed as mean±SEM with at least 3-6 values per group and analysed by ANOVA or unpaired non-parametric, Student's t-test, as indicated. […] Drug administration ceased 24 h prior to animal sacrifice. Animal weight gain and general physical condition was monitored daily. Methylcellulose (1% w/v) treated controls and use of the antipyschotic clozapine were employed for comparison.

[4] = system: NCAM PSA-immunoreactive neurons, dentate granule cell layer/hilar border; test: NCAM PSA expression in hippocampal dentate gyrus with water maze training; format: in vivo, rat; conditions: for effect on frequency of polysialylated neurons at 12 h following water maze training: versus untrained drug-treated and trained drug-naive animals
Procedure: as §1, §2, §3, §4
In this protocol animals were introduced to the training environment 5 days prior to training, and individually housed according to standard conditions. […]

[5] = system: BrdU-immunopositive cells in the hippocampal dentate granule cell layer; test: BrdU expression in hippocampal dentate granule cell layer (neurogenesis); format: in vivo, rat; conditions: for BrdU-immunopositive cell number/granule cell layer: 20 mg/kg, 40 days by gavage, BrdU 100 mg/kg i.p. last eight days; for effect on expression of BrdU-immunopositive cells / neurogenic rate: chronic 20 mg/kg, versus vehicle-treated controls
Procedure: as §1

[6] = biological target: rat 5-HT6 receptors (Rattus norvegicus, UniProt P31388); conditions: cited from earlier work
[7] = in vivo; cited from earlier work
[8] = system: seizure threshold; conditions: rat MEST test, dose range 0.1-30 mg/kg; cited from earlier work
[9] = system: retention of a spacial memory task; conditions: rat, 10 mg/kg p.o.; cited from earlier work
[10] = Example 3, 20 mg/kg, 40 days by gavage

Sequence of rat 5-HT6 receptors (P31388 whole entry): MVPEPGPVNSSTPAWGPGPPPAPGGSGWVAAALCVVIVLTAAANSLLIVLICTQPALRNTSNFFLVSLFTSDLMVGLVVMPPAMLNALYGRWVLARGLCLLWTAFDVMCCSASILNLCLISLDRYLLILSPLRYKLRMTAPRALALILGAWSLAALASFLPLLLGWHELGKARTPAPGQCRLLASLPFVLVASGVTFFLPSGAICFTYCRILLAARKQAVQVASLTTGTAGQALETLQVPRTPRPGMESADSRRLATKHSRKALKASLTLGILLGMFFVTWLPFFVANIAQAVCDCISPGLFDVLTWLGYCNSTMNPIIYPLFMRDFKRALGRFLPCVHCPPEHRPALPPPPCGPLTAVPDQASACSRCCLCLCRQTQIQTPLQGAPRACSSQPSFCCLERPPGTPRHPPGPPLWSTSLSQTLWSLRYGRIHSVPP

Q: With `N[C@@H]1C[C@H]1c1ccccc1` (racemic) [tranylcypromine] as the molecule, how does the “effect on hippocampal neurogenesis” value [1] read?
A: stimulate hippocampal neurogenesis

Q: For `CCOC(=O)[C@H](N)/C=C(\C)CP(=O)(O)O` [CGP43487], which “effect on hippocampal neurogenesis” value [1] is on record?
A: reduce the rate of hippocampal neurogenesis

Q: Which results are given for `COc1ccc(NS(=O)(=O)c2sc3ccc(Cl)cc3c2C)cc1N1CCNCC1.Cl` [SB271046, 5-Chloro-3-methylbenzo[b]thiophene-2-sulfonic acid (4-methoxy-3-piperazin-1-ylphenyl)amide hydrochloride]?
A: PSA immunopositive cell frequency ([2]; Example 1, 3 mg/kg, 40 days by gavage): 70.3 ± 3.9 PSA-positive cells per unit area; PSA immunopositive cell frequency ([2]; Example 1, 10 mg/kg, 40 days by gavage): 82.4 ± 1.7 PSA-positive cells per unit area; PSA immunopositive cell frequency ([2]; Example 1, 20 mg/kg, 40 days by gavage): 85.8 ± 8.4 PSA-positive cells per unit area; PSA immunopositive cell frequency [2, 10]: 78.3 ± 3.4 PSA-positive cells per unit area; frequency of polysialylated neurons in repeat group compared with Example 1 ([2]; Example 3 repeat, 20 mg/kg chronic): no difference; effect on frequency of polysialylated neurons in the subventricular zone of the rat hippocampal dentate gyrus [2]: significantly increase; effect on frequency of polysialylated neurons in the rat medial temporal lobe ([3]; chronic exposure): increased; PSA immunopositive cell frequency ([3]; Bregma level -7.1 mm): 61.7 ± 1.7 PSA-positive cells per unit length; PSA immunopositive cell frequency ([3]; Bregma level -7.6 mm): 69.9 ± 0.9 PSA-positive cells per unit length; PSA immunopositive cell frequency ([3]; Bregma level -8.1 mm): 125.4 ± 3.5 PSA-positive cells per unit length; PSA immunopositive cell frequency ([3]; Bregma level -8.6 mm): 178.3 ± 12.2 PSA-positive cells per unit length; PSA immunopositive cell frequency ([4]; Example 2, acute 20 mg/kg by gavage 30 min before water maze training, 12 h post-training): 96.0 ± 5.5 PSA-positive cells per unit area; PSA immunopositive cell frequency ([4]; Example 2, acute 20 mg/kg by gavage, untrained): 64.2 ± 4.3 PSA-positive cells per unit area; PSA immunopositive cell frequency ([4]; Example 2, chronic 20 mg/kg, 40 days by gavage, 12 h post water maze training): 109.8 ± 1.8 PSA-positive cells per unit area; PSA immunopositive cell frequency ([4]; Example 2, chronic 20 mg/kg, 40 days by gavage, untrained): 85.8 ± 1.3 PSA-positive cells per unit area; effect on frequency of polysialylated neurons at 12 h following water maze training ([4]; acute 20 mg/kg): significantly increase; BrdU-immunopositive cell number/granule cell layer [5]: 2332 ± 136.5; effect on expression of BrdU-immunopositive cells / neurogenic rate [5]: without altering neurogenic rate; pKi [6]: 9.0; oral bioavailability [7]: orally bioavailable; seizure threshold [8]: increases seizure threshold; retention of a spacial memory task [9]: significant improvements

Q: What does the source list for `COc1ccc(S(=O)(=O)Nc2cc(Cl)cc(Cl)c2OC)cc1N1CCNCC1.Cl` [SB399885, N-(3,5-dichloro-2-methoxy-phenyl)-4-methoxy-3-piperazin-1-yl-benzenesulfonamide hydrochloride]?
A: PSA immunopositive cell frequency ([2]; Example 3, 3 mg/kg, 40 days by gavage): 81.4 ± 5.3 PSA-positive cells per unit area; PSA immunopositive cell frequency ([2]; Example 3, 10 mg/kg, 40 days by gavage): 87.4 ± 5.4 PSA-positive cells per unit area; PSA immunopositive cell frequency [2, 10]: 104.2 ± 4.4 PSA-positive cells per unit area; effect on frequency of polysialylated neurons in the subventricular zone of the rat hippocampal dentate gyrus [2]: significantly increase; dose dependent increase in basal frequency of hippocampal polysialylated neurons compared with SB271046 of Example 1 ([2]; chronic treatment, analysis of variance F[1,21]=5.882, P=0.0244): significantly greater; PSA immunopositive cell frequency ([4]; Example 4, chronic 20 mg/kg, 40 days by gavage, 12 h post water maze training): 125.9 ± 4.7 PSA-positive cells per unit area; PSA immunopositive cell frequency ([4]; Example 4, chronic 20 mg/kg, 40 days by gavage, untrained): 104.2 ± 4.4 PSA-positive cells per unit area; increase in frequency of hippocampal polysialylated neurons 12 h following water maze training compared with SB271046 of Example 2 ([4]; chronic 20 mg/kg, Student's t-test P=0.0337): significantly greater; effect on frequency of polysialylated neurons at 12 h following water maze training ([4]; chronic 20 mg/kg): significantly increase; BrdU-immunopositive cell number/granule cell layer [5]: 2296.7 ± 49.1; effect on expression of BrdU-immunopositive cells / neurogenic rate [5]: without altering neurogenic rate

Q: For `NCCc1c[nH]c2ccc(O)cc12` [Serotonin], which “effect on hippocampal neurogenesis” value [1] is on record?
A: stimulate hippocampal neurogenesis

Q: Which “PSA immunopositive cell frequency” value ([2]; Example 1, 5 mg/kg, chronic comparison group) does the source give for `CN1CCN(C2=Nc3cc(Cl)ccc3Nc3ccccc32)CC1` [clozapine, reference compound] here?
A: 69.8 ± 1.6 PSA-positive cells per unit area

Q: Which “effect on hippocampal neurogenesis” value [1] does the source give for `CNCCC(Oc1ccc(C(F)(F)F)cc1)c1ccccc1` (stereo not shown) [fluoxetine] here?
A: stimulate hippocampal neurogenesis

Q: For `CN1CC[C@]23c4c5ccc(O)c4O[C@H]2[C@@H](O)C=C[C@H]3[C@H]1C5` [morphine], which “effect on hippocampal neurogenesis” value [1] is on record?
A: reduce the rate of hippocampal neurogenesis

Q: Which “effect on hippocampal neurogenesis” value [1] does the source give for `CCOc1ccccc1OC(c1ccccc1)C1CNCCO1` (stereo not shown) [reboxetine] here?
A: stimulate hippocampal neurogenesis
